Earlier results, collected in PMC8391575, “Identification of Novel Cathepsin B Inhibitors with Implications in Alzheimer’s Disease: Computational Refining and Biochemical Evaluation” (Cells, 2021).
Where two headings read alike, the source gives them in different places.

System: cathepsin B
Conditions: cited from earlier work; for pIC50 Experimental: Table 4
[1] = Table S1, read-out: IC50: half maximal inhibitory concentration
[2] = class of the experimental IC50, read-out: Activity Scale Experimental
[3] = Figure 1, previously reported inhibitors of cathepsin B, read-out: IC50

| SMILES | pIC50 Experimental | IC50 [1] [µM] | IC50 [2] [µM] | IC50 [3] [µM] |
| --- | --- | --- | --- | --- |
| CC(=O)N[C@@H](CC(C)C)C(=O)N[C@@H](CC(C)C)C(=O)N[C@H](C=O)CCCN=C(N)N [Compound N19, 2-acetamido-N-[1-[[5-(diaminomethylideneamino)-1-oxopentan-2-yl]amino]-4-methyl-1-oxopentan-2-yl]-4-methylpentanamide; 2,2,2-trifluoroacetic acid] | 6.36 | 0.44 | 0.3 to 2.5 | – |
| COc1ccc(C(=O)C(OC(=O)CNC(=O)c2ccco2)c2ccccc2)cc1 (centres unmarked) [Compound S36, [2-(4-methoxyphenyl)-2-oxo-1-phenylethyl] 2-(furan-2-carbonylamino)acetate] | 4.74 | – | > 2.5 | – |
| CCOC(=O)[C@H]1O[C@@H]1C(=O)N[C@H](C(=O)N1CCC[C@H]1C(=O)O)[C@@H](C)CC [Compound S2, (2S)-1-[(2S,3S)-2-[[(2S,3S)-3-ethoxycarbonyloxirane-2-carbonyl]amino]-3-methylpentanoyl]pyrrolidine-2-carboxylic acid] | 8.55 | – | < 0.3 | – |
| COc1ccc(S(=O)(=O)n2nc(OC(=O)c3cccs3)cc2N)cc1 [Compound S31, [5-amino-1-(4-methoxyphenyl)sulfonylpyrazol-3-yl] thiophene-2-carboxylate] | 6.16 | – | 0.3 to 2.5 | – |
| CC(C)CC(NC(=O)C1OC1C(=O)O)C(=O)NCCCCCO (centres unmarked) [Compound N1, 3-[[1-(5-hydroxypentylamino)-4-methyl-1-oxopentan-2-yl]carbamoyl]oxirane-2-carboxylic acid] | 7.14 | – | < 0.3 | – |
| CCC(=O)Oc1oc(-c2ccccc2)nc1/C=N/c1ccccc1OC [Compound S21, [4-[(2-methoxyphenyl)iminomethyl]-2-phenyl-1,3-oxazol-5-yl] propanoate] | 4.39 | – | > 2.5 | – |
| Nc1cc(OC(=O)c2cccs2)nn1S(=O)(=O)c1ccc(F)cc1 [Compound S32, [5-amino-1-(4-fluorophenyl)sulfonylpyrazol-3-yl] thiophene-2-carboxylate] | 6.36 | – | 0.3 to 2.5 | – |
| O=C(Oc1oc(-c2ccco2)nc1/C=N/c1ccccc1)c1ccco1 [Compound S22, [2-(furan-2-yl)-4-(phenyliminomethyl)-1,3-oxazol-5-yl] furan-2-carboxylate] | 4.41 | – | > 2.5 | – |
| COc1ccc(-c2cc(=O)c3c(O)cc(O)c(-c4cc(-c5cc(=O)c6c(O)cc(OC)cc6o5)ccc4OC)c3o2)cc1 [Compound N4, 5,7-dihydroxy-8-[5-(5-hydroxy-7-methoxy-4-oxochromen-2-yl)-2-methoxyphenyl]-2-(4-methoxyphenyl)chromen-4-one] | 6.21 | 0.62 | 0.3 to 2.5 | – |
| O=c1cc(-c2ccc(Oc3c(O)cc4oc(-c5ccc(O)cc5)cc(=O)c4c3O)cc2)oc2cc(O)cc(O)c12 [HIF, Hinokiflavone] | – | – | – | 0.58 |
| Nc1cc(OC(=O)c2ccco2)nn1S(=O)(=O)c1ccc(F)cc1 [Compound S10, [5-amino-1-(4-fluorophenyl)sulfonylpyrazol-3-yl] furan-2-carboxylate] | 5.9 | – | 0.3 to 2.5 | – |
| CC(C)C[C@H](NC(=O)C1OC1C(=O)O)C(=O)NCCCC[C@H](N)C(=O)O (stereo partly drawn) [Compound N2, 3-[[(2S)-1-[[(5S)-5-amino-5-carboxypentyl]amino]-4-methyl-1-oxopentan-2-yl]carbamoyl]oxirane-2-carboxylic acid] | 6.89 | 0.13 | < 0.3 | – |
| Nc1nonc1-c1nc2ccccc2n1Cc1ccc(F)cc1 [Compound S5, 4-[1-[(4-fluorophenyl)methyl]benzimidazol-2-yl]-1,2,5-oxadiazol-3-amine] | 4.47 | – | > 2.5 | – |
| COc1cc(O)c2c(=O)cc(-c3ccc(O)c(-c4c(O)cc(O)c5c(=O)cc(-c6ccc(O)cc6)oc45)c3)oc2c1 [Compound N21, 5,7-dihydroxy-8-[2-hydroxy-5-(5-hydroxy-7-methoxy-4-oxochromen-2-yl)phenyl]-2-(4-hydroxyphenyl)chromen-4-one] | 5.77 | 1.68 | 0.3 to 2.5 | – |
| NC(N)=NCCCCNC(=O)C(Cc1ccccc1)NC(=O)C1OC1C(=O)O (centres unmarked) [Compound N15, 3-[[1-[4-(diaminomethylideneamino)butylamino]-1-oxo-3-phenylpropan-2-yl]carbamoyl]oxirane-2-carboxylic acid] | 6.57 | 0.27 | < 0.3 | – |
| NC(N)=NCCCCNC(=O)C(Cc1ccc(O)cc1)NC(=O)C1OC1C(=O)O (centres unmarked) [Compound N16, 3-[[1-[4-(diaminomethylideneamino)butylamino]-3-(4-hydroxyphenyl)-1-oxopropan-2-yl]carbamoyl]oxirane-2-carboxylic acid] | 6.49 | 0.32 | 0.3 to 2.5 | – |
| O=C(CSc1nnc(-c2ccco2)c(-c2ccco2)n1)Nc1ccccc1 [Compound S37, 2-[[5,6-bis(furan-2-yl)-1,2,4-triazin-3-yl]sulfanyl]-N-phenylacetamide] | 5.65 | – | 0.3 to 2.5 | – |
| COc1cc(O)c2c(=O)cc(-c3ccc(OC)c(-c4c(O)cc(O)c5c(=O)cc(-c6ccc(O)cc6)oc45)c3)oc2c1 [Compound N17, 5,7-dihydroxy-8-[5-(5-hydroxy-7-methoxy-4-oxochromen-2-yl)-2-methoxyphenyl]-2-(4-hydroxyphenyl)chromen-4-one] | 6.26 | 0.55 | 0.3 to 2.5 | – |
| CC1=C(C)C[S+]([O-])N(S(=O)(=O)c2ccc(Cl)cc2)C1 (centres unmarked) [Compound S25, 2-(4-chlorophenyl)sulfonyl-4,5-dimethyl-3,6-dihydrothiazine 1-oxide] | 5.38 | – | > 2.5 | – |
| CCn1nc(-c2cccs2)nc2c(=O)n(C)c(=O)nc1-2 [Compound S13, 1-Ethyl-6-methyl-3-thiophen-2-yl-1H-pyrimido[5,4-e][1,2,4]triazine-5,7-dione] | 7.14 | – | < 0.3 | – |
| CCOC(=O)[C@@H]1O[C@H]1C(=O)N[C@@H](CC(C)C)C(=O)N1CCN(Cc2ccc(OC)c(OC)c2OC)CC1 [Compound S39, ethyl(2R,3R)-3-[[(2S)-4-methyl-1-oxo-1-[4-[(2,3,4-trimethoxyphenyl)methyl]piperazin-1-yl]pentan-2-yl]carbamoyl]oxirane-2-carboxylate; sulfuric acid] | 6.09 | 0.8 | 0.3 to 2.5 | – |
| COc1ccc(-c2cc(=O)c3c(O)cc(O)cc3o2)cc1-c1c(O)cc(O)c2c(=O)cc(-c3ccc(O)cc3)oc12 [AMF5, 4’-methylamentoflavone] | – | – | – | 0.81 |
